Measurements published in patent publication US11053204B2, “Pyrimidinyloxy benzene derivatives as herbicides” (FMC Corporation, priority 2015, dated 2021).

Experiments:
Assay type in all cases: in vivo
[1] = tested on: galium (catchweed bedstraw, Galium aparine); experiment: Test C preemergence, plant response rating
[2] = tested on: johnsongrass (Sorghum halepense); experiment: Test C preemergence, plant response rating
[3] = tested on: pigweed, palmer (palmer pigweed, Amaranthus palmeri); experiment: Test C preemergence, plant response rating
[4] = tested on: oat, wild (wild oat Avena fatua); experiment: Test C preemergence, plant response rating
[5] = tested on: kochia (Kochia scoparia); experiment: Test C preemergence, plant response rating
[6] = tested on: surinam grass (Brachiaria decumbens); experiment: Test C preemergence, plant response rating
[7] = tested on: field poppy (Papaver rhoeas); experiment: Test C postemergence, plant response rating; details: for Field Poppy plant response rating: scale 0 to 100 (0 no effect, 100 complete control)
How it was run: (§1)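 Preemergence: seeds sown in loam–sand blend or silt loam and sprayed with test chemicals in a non-phytotoxic surfactant-containing solvent. Postemergence: potted plants at 2–18 cm (1–4-leaf stage) sprayed with the same formulation. After 13–15 d in greenhouse, visual rating versus controls on 0 (no effect) to 100 (complete control) scale.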

[8] = tested on: nightshade (eastern black nightshade, Solanum ptycanthum); experiment: Test C postemergence, plant response rating; details: for Nightshade plant response rating: scale 0 to 100 (0 no effect, 100 complete control)
How it was run: as §1

[9] = tested on: windgrass (Apera spica-venti); experiment: Test C postemergence, plant response rating
How it was run: as §1

[10] = tested on: wild mustard (Sinapis arvensis); experiment: Test C postemergence, plant response rating; details: for Mustard, Wild plant response rating: scale 0 to 100 (0 no effect, 100 complete control)
How it was run: as §1

[11] = tested on: geranium, cutleaf (cutleaf geranium, Geranium dissectum); experiment: Test C postemergence, plant response rating; details: for Geranium, Cutleaf plant response rating: scale 0 to 100 (0 no effect, 100 complete control)
How it was run: as §1

[12] = tested on: pigweed, palmer (palmer pigweed, Amaranthus palmeri); experiment: Test C postemergence, plant response rating; details: for Pigweed, Palmer plant response rating: scale 0 to 100 (0 no effect, 100 complete control)
How it was run: as §1

[13] = tested on: wild poinsettia (Euphorbia heterophylla); experiment: Test C postemergence, plant response rating; details: for Poinsettia, Wild plant response rating: scale 0 to 100 (0 no effect, 100 complete control)
How it was run: as §1

[14] = tested on: field violet (Viola arvensis); experiment: Test C postemergence, plant response rating; details: for Field Violet plant response rating: scale 0 to 100 (0 no effect, 100 complete control)
How it was run: as §1

[15] = tested on: johnsongrass (Sorghum halepense); experiment: Test C postemergence, plant response rating; details: for Johnsongrass plant response rating: scale 0 to 100 (0 no effect, 100 complete control)
How it was run: as §1

[16] = tested on: speedwell (bird's-eye speedwell, Veronica persica); experiment: Test C postemergence, plant response rating; details: for Speedwell plant response rating: scale 0 to 100 (0 no effect, 100 complete control)
How it was run: as §1

[17] = tested on: buckwheat, wild (wild buckwheat, Polygonum convolvulus); experiment: Test C postemergence, plant response rating; details: for Buckwheat, Wild plant response rating: scale 0 to 100 (0 no effect, 100 complete control)
How it was run: as §1

[18] = tested on: surinam grass (Brachiaria decumbens); experiment: Test C postemergence, plant response rating
How it was run: as §1

[19] = tested on: Canada thistle (Cirsium arvense); experiment: Test C postemergence, plant response rating; details: for Canada Thistle plant response rating: scale 0 to 100 (0 no effect, 100 complete control)
How it was run: as §1

[20] = tested on: wild poinsettia (Euphorbia heterophylla); experiment: Test C preemergence, plant response rating
[21] = 125 g ai/ha, scale 0 to 100 (0 no effect, 100 complete control)

Q: How did the “Plant response rating, Galium” value ([1]; 31 g ai/ha, scale 0 to 100) turn out when O=C(CCCCC(F)(F)F)c1c(Br)cccc1Oc1ncc(Cl)cn1 [Compound 82] was run?
A: Its value is 0.

Q: And the “Plant response rating, Galium” value ([1]; 62 g ai/ha, scale 0 to 100)?
A: The value was 0.

Q: What about the “Plant response rating, Galium” value ([1]; 125 g ai/ha, scale of 0 to 100) of the same compound?
A: The value was 80.

Q: What about the “Plant response rating, Johnsongrass” value ([2]; 31 g ai/ha, scale 0 to 100) of the same compound?
A: The value was 5.

Q: And the “Plant response rating, Johnsongrass” value ([2]; 62 g ai/ha, scale 0 to 100)?
A: Its value is 40.

Q: What about the “Plant response rating, Johnsongrass” value ([2]; 125 g ai/ha, scale of 0 to 100) of the same compound?
A: Its value is 85.

Q: And the “Plant response rating, Pigweed, Palmer” value ([3]; 31 g ai/ha, scale 0 to 100)?
A: Its value is 85.

Q: What about the “Plant response rating, Pigweed, Palmer” value ([3]; 62 g ai/ha, scale 0 to 100) of the same compound?
A: Its value is 100.

Q: And the “Plant response rating, Pigweed, Palmer” value ([3]; 125 g ai/ha, scale of 0 to 100)?
A: The value was 100.

Q: And the “Plant response rating, Oat, Wild” value ([4]; 31 g ai/ha, scale 0 to 100)?
A: The value was 0.

Q: What about the “Plant response rating, Oat, Wild” value ([4]; 62 g ai/ha, scale 0 to 100) of the same compound?
A: Its value is 5.

Q: And the “Plant response rating, Oat, Wild” value ([4]; 125 g ai/ha, scale of 0 to 100)?
A: Its value is 5.

Q: And the “Plant response rating, Kochia” value ([5]; 31 g ai/ha, scale 0 to 100)?
A: Its value is 50.

Q: And the “Plant response rating, Kochia” value ([5]; 62 g ai/ha, scale 0 to 100)?
A: The value was 90.

Q: What about the “Plant response rating, Kochia” value ([5]; 125 g ai/ha, scale of 0 to 100) of the same compound?
A: Its value is 95.

Q: And the “Plant response rating, Surinam Grass” value ([6]; 31 g ai/ha, scale 0 to 100)?
A: Its value is 10.

Q: And the “Plant response rating, Surinam Grass” value ([6]; 62 g ai/ha, scale 0 to 100)?
A: The value was 25.

Q: What about the “Plant response rating, Surinam Grass” value ([6]; 125 g ai/ha, scale of 0 to 100) of the same compound?
A: Its value is 35.

Q: And the “Plant response rating, Field Poppy” value ([7]; 16 g ai/ha, scale of 0 to 100)?
A: The value was 50.

Q: And the “Plant response rating, Field Poppy” value ([7]; 31 g ai/ha, scale 0 to 100)?
A: The value was 85.

Q: What about the “Field Poppy plant response rating” value ([7]; 62 g ai/ha) of the same compound?
A: Its value is 100.

Q: And the “Field Poppy plant response rating” value ([7]; 125 g ai/ha)?
A: The value was 100.

Q: And the “Plant response rating, Nightshade” value ([8]; 16 g ai/ha, scale of 0 to 100)?
A: The value was 85.

Q: And the “Plant response rating, Nightshade” value ([8]; 31 g ai/ha, scale 0 to 100)?
A: Its value is 80.

Q: And the “Nightshade plant response rating” value ([8]; 62 g ai/ha)?
A: The value was 95.

Q: What about the “Nightshade plant response rating” value ([8]; 125 g ai/ha) of the same compound?
A: Its value is 100.

Q: And the “Plant response rating, Windgrass” value ([9]; 16 g ai/ha, scale of 0 to 100)?
A: The value was 10.

Q: And the “Plant response rating, Windgrass” value ([9]; 31 g ai/ha, scale 0 to 100)?
A: Its value is 35.

Q: And the “Windgrass plant response rating” value [9, 21]?
A: The value was 35.

Q: What about the “Plant response rating, Mustard, Wild” value ([10]; 16 g ai/ha, scale of 0 to 100) of the same compound?
A: The value was 95.

Q: What about the “Plant response rating, Mustard, Wild” value ([10]; 31 g ai/ha, scale 0 to 100) of the same compound?
A: Its value is 95.

Q: What about the “Mustard, Wild plant response rating” value ([10]; 62 g ai/ha) of the same compound?
A: Its value is 100.

Q: What about the “Mustard, Wild plant response rating” value ([10]; 125 g ai/ha) of the same compound?
A: The value was 100.

Q: What about the “Plant response rating, Geranium, Cutleaf” value ([11]; 16 g ai/ha, scale of 0 to 100) of the same compound?
A: Its value is 30.

Q: And the “Plant response rating, Geranium, Cutleaf” value ([11]; 31 g ai/ha, scale 0 to 100)?
A: The value was 30.

Q: What about the “Geranium, Cutleaf plant response rating” value ([11]; 62 g ai/ha) of the same compound?
A: The value was 40.

Q: And the “Geranium, Cutleaf plant response rating” value ([11]; 125 g ai/ha)?
A: The value was 60.

Q: And the “Plant response rating, Pigweed, Palmer” value ([12]; 16 g ai/ha, scale of 0 to 100)?
A: The value was 75.

Q: What about the “Plant response rating, Pigweed, Palmer” value ([12]; 31 g ai/ha, scale 0 to 100) of the same compound?
A: Its value is 80.

Q: What about the “Pigweed, Palmer plant response rating” value ([12]; 62 g ai/ha) of the same compound?
A: The value was 98.

Q: And the “Pigweed, Palmer plant response rating” value ([12]; 125 g ai/ha)?
A: The value was 98.

Q: And the “Plant response rating, Poinsettia, Wild” value ([13]; 16 g ai/ha, scale of 0 to 100)?
A: Its value is 40.

Q: What about the “Plant response rating, Poinsettia, Wild” value ([13]; 31 g ai/ha, scale 0 to 100) of the same compound?
A: Its value is 65.

Q: What about the “Poinsettia, Wild plant response rating” value ([13]; 62 g ai/ha) of the same compound?
A: Its value is 85.

Q: And the “Poinsettia, Wild plant response rating” value ([13]; 125 g ai/ha)?
A: The value was 75.

Q: What about the “Plant response rating, Field Violet” value ([14]; 16 g ai/ha, scale of 0 to 100) of the same compound?
A: The value was 60.

Q: What about the “Plant response rating, Field Violet” value ([14]; 31 g ai/ha, scale 0 to 100) of the same compound?
A: The value was 70.

Q: What about the “Field Violet plant response rating” value ([14]; 62 g ai/ha) of the same compound?
A: Its value is 90.

Q: What about the “Field Violet plant response rating” value ([14]; 125 g ai/ha) of the same compound?
A: The value was 90.

Q: What about the “Plant response rating, Johnsongrass” value ([15]; 16 g ai/ha, scale of 0 to 100) of the same compound?
A: Its value is 5.

Q: What about the “Plant response rating, Johnsongrass” value ([15]; 31 g ai/ha, scale 0 to 100) of the same compound?
A: The value was 20.

Q: And the “Johnsongrass plant response rating” value ([15]; 62 g ai/ha)?
A: Its value is 10.

Q: And the “Johnsongrass plant response rating” value ([15]; 125 g ai/ha)?
A: Its value is 30.

Q: What about the “Plant response rating, Speedwell” value ([16]; 16 g ai/ha, scale of 0 to 100) of the same compound?
A: Its value is 75.

Q: And the “Plant response rating, Speedwell” value ([16]; 31 g ai/ha, scale 0 to 100)?
A: The value was 85.

Q: And the “Speedwell plant response rating” value ([16]; 62 g ai/ha)?
A: The value was 95.

Q: What about the “Speedwell plant response rating” value ([16]; 125 g ai/ha) of the same compound?
A: Its value is 95.

Q: And the “Plant response rating, Buckwheat, Wild” value ([17]; 16 g ai/ha, scale of 0 to 100)?
A: Its value is 80.

Q: What about the “Plant response rating, Buckwheat, Wild” value ([17]; 31 g ai/ha, scale 0 to 100) of the same compound?
A: Its value is 70.

Q: What about the “Buckwheat, Wild plant response rating” value ([17]; 62 g ai/ha) of the same compound?
A: Its value is 100.

Q: What about the “Buckwheat, Wild plant response rating” value ([17]; 125 g ai/ha) of the same compound?
A: Its value is 100.

Q: And the “Plant response rating, Surinam Grass” value ([18]; 16 g ai/ha, scale of 0 to 100)?
A: Its value is 20.

Q: What about the “Plant response rating, Surinam Grass” value ([18]; 31 g ai/ha, scale 0 to 100) of the same compound?
A: The value was 20.

Q: What about the “Surinam Grass plant response rating” value [18, 21] of the same compound?
A: The value was 25.

Q: What about the “Plant response rating, Canada Thistle” value ([19]; 16 g ai/ha, scale of 0 to 100) of the same compound?
A: The value was 85.

Q: And the “Plant response rating, Canada Thistle” value ([19]; 31 g ai/ha, scale 0 to 100)?
A: The value was 85.

Q: And the “Canada Thistle plant response rating” value ([19]; 62 g ai/ha)?
A: Its value is 85.

Q: And the “Canada Thistle plant response rating” value ([19]; 125 g ai/ha)?
A: Its value is 98.

Q: And the “Plant response rating, Poinsettia, Wild” value ([20]; 31 g ai/ha, scale 0 to 100)?
A: The value was 0.

Q: And the “Plant response rating, Poinsettia, Wild” value ([20]; 62 g ai/ha, scale 0 to 100)?
A: The value was 0.

Q: And the “Plant response rating, Poinsettia, Wild” value ([20]; 125 g ai/ha, scale of 0 to 100)?
A: Its value is 20.
